Measured values taken from paper PMC7693160 (Pharmaceutics, 2020).
Values after ≈ are worked out from the molar mass of the structure shown. Read-outs that look alike come from different tables or passages of the source.

Assays:
[1] = Equilibrium solubility, Uniprep method, 24 h at 37 °C; assay type: physicochemical
Method: The solubility of FLU was investigated in various aqueous and biorelevant dissolution media using the Uniprep system (Whatman, Piscataway, NJ, USA). All aqueous buffers were prepared according to the European Pharmacopoeia, while the biorelevant media were prepared according to Markopoulos et al. and Fuchs et al.. An excess amount of API was added to 3 mL of dissolution medium and the samples were incubated for 24 h at 37 °C on an orbital mixer. The samples were then filtered through the 0.45 μm polytetrafluoroethylene (PTFE) filter integrated in the Uniprep system. The filtrate was immediately diluted with mobile phase and analyzed by high-performance liquid chromatography (HPLC) (see Section 2.5). All measurements were performed at least in triplicate (n ≥ 3) and the final pH was recorded. […] Whatman, Piscataway, NJ, USA) and subsequently, after appropriate dilution with mobile phase, analyzed by HPLC-UV (Hitachi Chromaster; Hitachi Ltd., Tokyo, Japan or Spectra System HPLC, ThermoQuest Inc., San Jose, CA, USA). A BDS Hypersil C18, 5 μm, 150 × 4.6 mm (Thermo Scientific, Waltham, MA, United States) analytical column combined with a pre-column (BDS Hypersil C-18, 3μm, 10 × 4mm) was used. The mobile phase consisted of water adjusted to pH = 3.0 with trifluoroacetic acid (TFA) and acetonitrile (49.5:0.5:50% v/v). The detection wavelength was set at 247 nm, the flow rate at 1.0 mL/min, and the injection volume at 20 μL. Using this method, the retention time was approximately 6.8 min.

[2] = In vitro dissolution, USP II paddle apparatus; assay type: physicochemical
Method: All dissolution tests were performed using a calibrated USP II (paddle) apparatus (Erweka DT 80, Heusenstamm, Germany) at 37 ± 0.4 °C. Each vessel contained 500 mL of fresh, pre-warmed medium and the rotational speed was set at 75 rpm. Samples were withdrawn at 2.5, 5, 10, 15, 20, 30, 45, 60, 90, and 120 min via a 5 mL glass syringe connected to a stainless-steel cannula containing a 10 μm polyethylene cannula filter. Immediately thereafter, the sample was filtered through a 0.45 μm PTFE filter (ReZist 30, GE Healthcare UK Ltd., Buckinghamshire, United Kingdom), discarding the first 2 mL. The filtrate was immediately diluted with mobile phase and analyzed by HPLC-UV (see Section 2.5). The removal of 5 mL at each sampling time was considered in the calculation of the percentage dissolved. All experiments were performed at least in triplicate (n ≥ 3) and the final pH in the vessel was recorded.
Samples obtained from solubility and dissolution experiments were first filtered through a 0.45 μm PTFE filter (ReZist 30 syringe filter or Uniprep; Whatman, Piscataway, NJ, USA) and subsequently, after appropriate dilution with mobile phase, analyzed by HPLC-UV (Hitachi Chromaster; Hitachi Ltd., Tokyo, Japan or Spectra System HPLC, ThermoQuest Inc., San Jose, CA, USA). A BDS Hypersil C18, 5 μm, 150 × 4.6 mm (Thermo Scientific, Waltham, MA, United States) analytical column combined with a pre-column (BDS Hypersil C-18, 3μm, 10 × 4mm) was used. The mobile phase consisted of water adjusted to pH = 3.0 with trifluoroacetic acid (TFA) and acetonitrile (49.5:0.5:50% v/v). The detection wavelength was set at 247 nm, the flow rate at 1.0 mL/min, and the injection volume at 20 μL. Using this method, the retention time was approximately 6.8 min. The limit of detection (LOD) and quantification (LOQ) were 0.03 and 0.05 μg/mL, respectively.

[3] = parameters: method as in earlier work; conditions: 55 (55, 60); cited from earlier work
[4] = cited from earlier work
UGT2B7 = conditions: Recombinant UGT; cited from earlier work
[5] = system: tooth pulp-evoked potentials (TPEP) amplitude and subjective pain intensity rating; conditions: cited from earlier work; for Rmax obs: 100 mg tablet; for TRmax obs: median
CYP2C9 1*/1* = conditions: Recombinant CYP (fu,mic = 1), cited from earlier work
CYP2C9 2*/2* = conditions: Recombinant CYP (fu,mic = 1), cited from earlier work

**Q.** Which results are given for `CC(C(=O)O)c1ccc(-c2ccccc2)c(F)c1` (centres unmarked) [flurbiprofen]?
**A.** solubility at 24 h ([1]; 37 °C, aqueous buffer, thermodynamic from solid, Acetate buffer (pH = 4.5), pHfinal 4.7, read-out: Solubility, mean (SD)): 101 µg/mL (≈ 414 µM); solubility at 24 h ([1]; 37 °C, aqueous buffer, thermodynamic from solid, Phosphate buffer (pH = 6.5), pHfinal 6.1, read-out: Solubility, mean (SD)): 2020 µg/mL (≈ 8290 µM); solubility at 24 h ([1]; 37 °C, aqueous buffer, thermodynamic from solid, Phosphate buffer (pH = 6.8), pHfinal 6.3, read-out: Solubility, mean (SD)): 3130 µg/mL (≈ 12800 µM); solubility at 24 h ([1]; 37 °C, fassgf or other biorelevant, thermodynamic from solid, Level III FaSSGF (pH = 1.6), pHfinal 1.6, read-out: Solubility, mean (SD)): 18.5 µg/mL (≈ 75.7 µM); solubility at 24 h ([1]; 37 °C, thermodynamic from solid, FaSSGF Level I (pH = 1.6), pHfinal 1.6, read-out: Solubility, mean (SD)): 18.1 µg/mL (≈ 74.1 µM); solubility at 24 h ([1]; 37 °C, thermodynamic from solid, FeSSIF V1 Level I (pH = 5.0), pHfinal 5.1, read-out: Solubility, mean (SD)): 225 µg/mL (≈ 923 µM); solubility at 24 h ([1]; 37 °C, thermodynamic from solid, Level II FaSSIF V1 (pH = 6.5), pHfinal 6.0, read-out: Solubility, mean (SD)): 1950 µg/mL (≈ 8000 µM); solubility at 24 h ([1]; 37 °C, thermodynamic from solid, Level II FaSSIF V3 (pH = 6.7), pHfinal 5.9, read-out: Solubility, mean (SD)): 1590 µg/mL (≈ 6490 µM); solubility at 24 h ([1]; aqueous buffer (FaSSGF Level I), pH 1.6, minimum experimentally measured value, read-out: S0 (intrinsic solubility)): 18 µg/mL (≈ 73.7 µM); maximum dissolved ([2]; FaSSGF Level I, 100 mg): 5.5%; plateau of in vitro release ([2]; FaSSGF Levels I and III, 100 mg): around 8.3 % of the dose; time to 85% dissolved ([2]; FaSSIF V3 Level I (without bile components)): 60 min; time to >85% dissolved ([2]; FaSSIF V3 Level II): ≤ 2.5 min; time to >85% dissolved ([2]; Ph. Eur. phosphate buffer (pH 6.8)): ≤ 15 min; CYP2C9 1*/2*-Vmax (CYP2C9 1*/2*): 11.53 pmol/min/pmol CYP; CYP2C9 1*/3*-Vmax (CYP2C9 1*/3*): 9.55 pmol/min/pmol CYP; logPo:w [3]: 3.99; Blood/plasma ratio [4]: 0.55; Fraction unbound in plasma [4]: 0.01; bound to plasma proteins [4]: > 99%; Km (UGT2B7): 50.2 µM; UGT2B7-Vmax (UGT2B7): 119.7 pmol/min/mg protein; Rmax obs ([5]; Pain intensity reduction): 53.1%; AUCE obs ([5]; Pain intensity reduction): 224.2 %·h; TRmax obs ([5]; Pain intensity reduction): 4.00 h; Rmax obs ([5]; TPEP amplitude reduction): 47.3%; AUCE obs ([5]; TPEP amplitude reduction): 224.2 %·h; TRmax obs ([5]; TPEP amplitude reduction): 4.00 h; CYP2C9 1*/1*-Vmax (CYP2C9 1*/1*): 15.79 pmol/min/pmol CYP; Km (CYP2C9 1*/1*; read-out: CYP2C9 1*/1*-Km): 8.76 µM; CYP2C9 2*/2*-Vmax (CYP2C9 2*/2*): 10.04 pmol/min/pmol CYP; Km (CYP2C9 2*/2*; read-out: CYP2C9 2*/2*-Km): 10.4 µM
